Measured values as given in patent US7144721B1, “Treatment of wounds” (The Secretary of the State of Defense, Defence Science and …, priority 1999, dated 2006).
Square brackets hold non-standard residues; d marks the D form. Peptide text beside a SMILES is read from it. * marks the point of attachment. Sta = CC(C)C[C@H](N)[C@@H](O)CC(=O)O; Isovaleryl = CC(C)CC(=O)*

What was measured:
Type in all cases: biochemical
[1] = test system: exopeptidase (metalloproteinase activity) of Lucilia sericata ES; experiment: Leucine aminopeptide hydrolysis by Lucilia sericata ES
Excerpt: (§1) In addition to the predominant serine proteinase activity detected in the ES secretions of Lucilia sericata other less predominant activity is present. The presence of an aspartyl and metalloproteinase activity has been detected though no cysteinyl activity is shown. […] This inhibition reflects the presence of an exopeptidase with a metalloproteinase enzymic nature.

[2] = test system: fibronectin, laminin and collagens I, III, IV and V; experiment: Degradation of ECM/wound components by larval ES secretions
[3] = test system: trypsin-like serine proteinase activity in Lucilia sericata ES; experiment: Tosyl-Gly-Pro-Arg-AMC hydrolysis by Lucilia sericata ES in the presence of APMSF and PMSF
Description: (§2) The activity of Lucilia sericata ES (0.25 μg) against Tosyl-Gly-Pro-Arg-AMC (a) and against Suc-Ala-Ala-Phe-AMC (b) in the presence of APMSF and PMSF was investigated using different presentations of ES as follows:
(a) • A. ES • B. ES pre-incubated with 0.025 mM APMSF • C. ES pre-incubated with 0.05 mM APMSF • D. ES pre-incubated with 1 mM PMSF
(§3) The results for (a) reveal the “trypsin-like” serine proteinase activity present in Lucilia sericata ES. The hydrolysis of Tosyl-Glyc-Pro-Arg-AMC (selective for the serine proteinases thrombin and plasmin) was inhibited by 1 mM PMSF and 0.05 mM APMSF. […] The results provide further evidence of the presence in ES of two different sub-classes of serine proteinase.

[4] = test system: Lucilia sericata ES serine proteinase activity; experiment: FITC-casein hydrolysis by Lucilia sericata ES at pH8 in the presence of PMSF/APMSF
Description: The activity of Lucilia sericata ES in FITC-casein hydrolysis at pH8 was investigated using different presentations of ES (0.25 μg) as follows:
The proteolytic activity of Lucilia sericata ES was inhibited following pre-incubation with the irreversible serine proteinase inhibitor PMSF. […] PMSF is dissolved in ethanol and the effect of the solvent on the activity of the ES was negligible. In contrast, approximately 50% of residual serine proteinase activity from ES was detected in the cases where the ES had been pre-incubated with the irreversible “trysin-like” specific inhibitor APMSF. Residual activity in the presence of APMSF indicates the presence of a chymotrypsin-like enzyme.

[5] = test system: trypsin-like serine proteinase (aminobenzamidine elution peak) and flow-through proteinases of Lucilia sericata ES; experiment: Residual proteinase activity of aminobenzamidine agarose column fractions with APMSF
Description: The trypsin-like serine proteinase was purified by affinity chromatography of Lucilia sericata ES on aminobenzamidine agarose. The column matrix (1 ml) was equilibrated with 20 ml of 0.025M Tris-HCl buffer pH 8.0 containing 0.5M NaCl. The crude ES (0.5 ml, 70 μg/ml protein) was diluted with an equal volume of buffer before application to the column. Fractions (0.5 ml) were collected throughout the chromatography. After washing with 6.5 times column volume of buffer to remove unbound protein, the free aminobenzamidine ligand (2 ml 400 μM) was used to elicit the elution of bound material. Absorbance readings of the fractions at 280 nm was used to establish the positions of the unbound (flow-through) and bound peaks which were then collected for assay.
Aminobenzamidine agarose binds trypsin-like serine proteinases. Following application of larval enzyme secretions to the column, unbound material passed directly through and was collected as “flow-through” (peak I). The addition of free aminobenzamidine to the column buffer elicited elution of the bound proteinase (peak II). The unbound (flow-through) material contained proteinase activity unaffacted by APMSF (possibly including a a chrymotrypsin-like enzyme), whereas the activity in the aminobenzamidine elution peak was substantially abolished (80%) by APMSF, indicating purification of a trypsin-like serine proteinase activity.

[6] = test system: chymotrypsin-like serine proteinase activity in Lucilia sericata ES; experiment: Suc-Ala-Ala-Phe-AMC hydrolysis by Lucilia sericata ES in the presence of APMSF and PMSF
Description: as §2
(b) • E. ES • F. ES pre-incubated with 0.2 mM APMSF • G. ES pre-incubated with 1 mM PMSF
as §3

[7] = Lipase activity of ES secretions; details: pre-incubated with the inhibitor
[8] = test system: aspartyl activity of Lucilia sericata ES; experiment: Aspartyl proteinase activity of ES by FITC-casein hydrolysis at pH 5.0
Excerpt: as §1

[9] = ES (0.25 μg) pre-incubated with 0.2 mM inhibitor
[10] = ES (0.25 μg) pre-incubated with 1 mM inhibitor

**Q.** What does the source list for `c1cnc2c(c1)ccc1cccnc12` [1,10-phenanthroline]?
**A.** inhibition of leucine aminopeptide hydrolysis [1]: inhibited; inhibition of the degradation of laminin and fibronectin by larval secretions [2]: not significantly

**Q.** Which results are given for `N=C(N)c1ccc(CS(=O)(=O)F)cc1` [APMSF, 4-(amidinophenyl) methane sulphonyl fluoride]?
**A.** residual activity (%) against Tosyl-Gly-Pro-Arg-AMC ([3]; ES (0.25 μg) pre-incubated with 0.025 mM inhibitor): 14.3%; residual activity (%) against Tosyl-Gly-Pro-Arg-AMC ([3]; ES (0.25 μg) pre-incubated with 0.05 mM inhibitor): 3.6%; activity (%) of ES in FITC-casein hydrolysis ([4]; ES (0.25 μg) pre-incubated with 0.04 mM inhibitor): 43.5%; activity (%) of ES in FITC-casein hydrolysis ([4]; ES (0.25 μg) pre-incubated with 0.12 mM inhibitor): 47%; activity (%) of ES in FITC-casein hydrolysis [4, 9]: 54%; residual serine proteinase activity from ES ([4]; ES pre-incubated with APMSF, summary over the concentrations): approximately 50%; activity abolished by inhibitor ([5]; aminobenzamidine elution peak (peak II)): 80%; effect of inhibitor on proteinase activity ([5]; unbound (flow-through) material (peak I)): unaffacted; residual activity (%) against Suc-Ala-Ala-Phe-AMC [6, 9]: 86.8%; inhibition of the degradation of laminin and fibronectin by larval secretions [2]: not significantly

**Q.** With `O=S(=O)(F)Cc1ccccc1` [PMSF, phenyl methanesulphonyl fluoride] as the compound, how does the “residual activity (%) against Tosyl-Gly-Pro-Arg-AMC” value [3, 10] read?
**A.** 0%

**Q.** And the “activity (%) of ES in FITC-casein hydrolysis” value [4, 9]?
**A.** 13.8%

**Q.** And the “activity (%) of ES in FITC-casein hydrolysis” value ([4]; ES (0.25 μg) pre-incubated with 0.6 mM inhibitor)?
**A.** 18%

**Q.** And the “lipase activity of ES secretions pre-incubated with inhibitor” value [7]?
**A.** not detected

**Q.** And the “residual activity (%) against Suc-Ala-Ala-Phe-AMC” value [6, 10]?
**A.** 1.3%

**Q.** And the “inhibition of the degradation of laminin and fibronectin by larval secretions” value [2]?
**A.** inhibited

**Q.** For `CC(C)CC(=O)N[C@H](C(=O)N[C@H](C(=O)N[C@@H](CC(C)C)[C@@H](O)CC(=O)N[C@@H](C)C(=O)N[C@@H](CC(C)C)[C@@H](O)CC(=O)O)C(C)C)C(C)C` [pepstatin A] (Isovaleryl-VV[Sta]A[Sta]-OH), which “inhibition of aspartyl activity” value [8] is on record?
**A.** successfully inhibited
